Experimental data published in patent US20220175675A1, “ENCAPSULATING MOLECULES IN FAT GLOBULES” (The Regents of the University of California, priority 2019, published 2022).

How the values were obtained:
[1] = Loading of vitamin D3 in bovine milk fat globules; type: physicochemical; conditions: for EE %, 1% v/v ethanol / EE %, 10% v/v ethanol / LY, 1% v/v ethanol / LY, 10% v/v ethanol: Bovine MFGs, 30 minutes
Method: Raw milk was diluted with Milli-Q water at 9:1 water to milk. Cream was separated from diluted milk via centrifugation at 3,000×g for 5 min. Cream was collected and reconstituted in water at 4% w/v concentration. The mixture was then further centrifuged at 3,000×g for 5 min. The cream was then collected and reconstituted to desired weight/volume in water (20% w/v in water).
Encapsulation of VD3 was achieved by incubation of compound's ethanolic solution with 20% w/v cream suspended in water. Once well mixed by gently inverting the tube, the contents were allowed to incubate in the dark. […] Significant values were reported with a 95% confidence interval, i.e. p<0.05.
Incubation time was varied: 15, 30, 45, and 60 min. The effect of incubation time on the encapsulation of VD3 in bovine MFGs was assessed using a t-test with adjusted significance level using Bonferroni correction (p=0.008). These statistical analyses were carried out using Microsoft Excel 2010 (Microsoft Inc., Bellevue, WA, U.S.A.). All procedures were conducted with minimal exposure to light. The experiments were conducted in triplicates.
At the end of the incubation period with VD3, cream was separated by centrifuging the suspension at 3,000×g for 5 min Cream was skimmed off the top with particular care not to include any of the aqueous phase. Methanol was added at 50 mg/mL and vortexed vigorously for 1 min. The mixture was then centrifuged at 3,000×g for 30 min. Liquid phase was collected and absorbance was measured at 264 nm. Absorbance blank was prepared fresh during every encapsulation run by introducing ethanol to cream suspended in water. Absorbance of the blank was subtracted from test samples to remove the absorbance of solvent, lipids, and other MFGs components. All experiments were conducted in triplicates.
Fat content in cream was measured to calculate the loading yield. The fat was isolated using the same set of preparation steps detailed in Example 13 with the addition of the last centrifugation step to recover cream after at the end of the loading process. The total fat content was determined using a modified Folch method (Folch, Lees, & Sloane-Stanley, 1957) where an additional step of washing the chloroform/water interface with 1:1 water/methanol solution was added to remove milk serum components. The loading yield of VD3 in milk fat was calculated as follows: […]
where CE is the VD3 extracted from MFGs (μg), and MF is the mass of milk fat (g) in MFGs suspension. The extraction procedure was conducted in triplicates using independent milk samples.

[2] = Encapsulation of hydrophobic compounds into milk fat globules (loading capacity, encapsulation efficiency); type: physicochemical, bovine; conditions: 10% v/v ethanol, 30 min
Method: Raw milk was procured from a local market and stored at 4° C. Milk was used for up to 4 days post purchase. MFGs were separated from raw milk using centrifugal separation following a modified version of the method by Gallier et al. (2010) (12). First, raw milk was diluted with Milli-Q water at 9:1 water to milk, and the solution was centrifuged at 3,000×g for 5 min using a fixed angle centrifuge rotor. Cream was then skimmed off the sides of the centrifuged tubes after discarding the aqueous phase. In order to remove more of the milk serum components, cream was reconstituted in water to reach 4% w/v, and subjected to another step of centrifugation at 3,000×g for 5 min Cream was collected as detailed prior, then reconstituted to 20% w/v in Milli-Q water. All separation steps were completed at room temperature.
Encapsulation of test compounds in MFGs was accomplished by mixing ethanolic stock solution of a compound with 20% w/v cream suspended in water. The mixture was gently inverted several times to mix, then allowed in incubate in the dark.
To test the effect of incubation temperature on the partitioning and encapsulation yield and efficiency, RA was added at 250 μM concentration and was allowed to incubate with MFGs for 30 min at 4, 22, and 40° C.
To quantify the amount of compound encapsulated in MFGs, cream was separated from ethanol-containing aqueous phase via centrifugal separation at 3,000 x g for 5 min. Cream was skimmed and added to methanol at 50 mg/mL and vortexed vigorously for 1 min, then centrifuged at 16,000×g for 10 min. Top layer of methanol was collected and absorbance was measured at appropriate wavelength for each compound. An absorbance blank was prepared following the same encapsulation and separation steps in the absence of compound. λmax in methanol (nm) for each compound is reported in Table 1.
Cream (20% w/v in Milli-Q water) that was separated following the steps in Example 2 was further separated via centrifugation at 3,000×g for 5 min. Fat content in cream was measured using a modified Folch method (13). An additional washing step was incorporated where the chloroform/water interface was washed with 1:1 water/methanol solution.

Excerpt for physchem: One such molecular property that is used to predict partitioning potential is the octanol—water partition coefficient; Log P, which is the logarithm of the ratio of the solute concentration in the octanol phase to the solute concentration in the water phase, at a defined temperature.

For `C=C1CC[C@H](O)C/C1=C/C=C1\CCC[C@]2(C)[C@@H]([C@H](C)CCCC(C)C)CC[C@@H]12` [Cholecalciferol], the “EE %, 1% v/v ethanol” value ([1]; 50 μM) was 20.81 ± 8.82%, the “EE %, 10% v/v ethanol” value ([1]; 50 μM) was 27.72 ± 7.94% and the “LY, 1% v/v ethanol” value ([1]; 50 μM) was 19.78 ± 8.38 μg of VD3 per gram of milk fat. The “LY, 10% v/v ethanol” value ([1]; 50 μM) was 26.34 ± 7.55 μg of VD3 per gram of milk fat, the “EE %, 1% v/v ethanol” value ([1]; 100 μM) was 18.45 ± 0.91% and the “EE %, 10% v/v ethanol” value ([1]; 100 μM) was 21.09 ± 1.10%. The “LY, 1% v/v ethanol” value ([1]; 100 μM) was 35.07 ± 1.73 μg of VD3 per gram of milk fat, the “LY, 10% v/v ethanol” value ([1]; 100 μM) was 40.09 ± 2.10 μg of VD3 per gram of milk fat and the “EE %, 1% v/v ethanol” value ([1]; 150 μM) was 15.43 ± 1.27%. The “EE %, 10% v/v ethanol” value ([1]; 150 μM) was 20.67 ± 1.97%, the “LY, 1% v/v ethanol” value ([1]; 150 μM) was 44.00 ± 3.63 μg of VD3 per gram of milk fat and the “LY, 10% v/v ethanol” value ([1]; 150 μM) was 58.93 ± 5.61^†¥ μg of VD3 per gram of milk fat. For the same compound, the “EE %, 1% v/v ethanol” value ([1]; 200 μM) was 12.31 ± 3.56%, the “EE %, 10% v/v ethanol” value ([1]; 200 μM) was 18.51 ± 1.52 % and the “LY, 1% v/v ethanol” value ([1]; 200 μM) was 46.78 ± 13.52 μg of VD3 per gram of milk fat. For the same compound, the “LY, 10% v/v ethanol” value ([1]; 200 μM) was 70.37 ± 5.79^†‡¥ μg of VD3 per gram of milk fat, the “EE %, 1% v/v ethanol” value ([1]; 250 μM) was 14.28 ± 1.89% and the “EE %, 10% v/v ethanol” value ([1]; 250 μM) was 16.85 ± 2.94 %. The “LY, 1% v/v ethanol” value ([1]; 250 μM) was 67.84 ± 9.00 μg of VD3 per gram of milk fat, the “LY, 10% v/v ethanol” value ([1]; 250 μM) was 80.07 ± 14.00 μg of VD3 per gram of milk fat and the “VD3 loaded into MFGs (up to)” value ([1]; bovine MFGs) was “Up to 80 μg/g milk fat”. The “reduction in the encapsulation yield with extended incubation” value ([1]; bovine MFGs, incubation up to 60 min vs 45 min, 10% v/v ethanol, 250 μM VD3) was “approx. 8%”, the logP (physchem) was about 7.5 and the “% Encapsulation efficiency” value ([2]; 50 μM added compound, room temperature) was 68.60 ± 6.30%. For the same compound, the “% Encapsulation efficiency” value ([2]; 100 μM added compound, room temperature) was 69.58 ± 6.44%, the “% Encapsulation efficiency” value ([2]; 150 μM added compound, room temperature) was 67.62 ± 3.67% and the “% Encapsulation efficiency” value ([2]; 200 μM added compound, room temperature) was 63.59 ± 1.43%. For the same compound, the “% Encapsulation efficiency” value ([2]; 250 μM added compound, room temperature) was 49.84 ± 3.74 %, the “% Encapsulation efficiency” value ([2]; 500 μM added compound, room temperature) was 45.25 ± 3.00 % and the “% Encapsulation efficiency” value ([2]; 1000 μM added compound, room temperature) was 24.77 ± 0.84 %. The “% Encapsulation efficiency” value ([2]; 1500 μM added compound, room temperature) was 28.92 ± 3.43 %, the “% Encapsulation efficiency” value ([2]; 2000 μM added compound, room temperature) was 19.66 ± 1.05 % and the “% Encapsulation efficiency” value ([2]; 2500 μM added compound, room temperature) was 19.22 ± 2.88 %. The “maximal loading capacity (LC)” value ([2]; maximal value over 50-2500 μM, room temperature) was 22.12 μg per gram of milk fat and the “encapsulation efficiency (EE %), maximal/overall value” ([2]; over tested concentrations) was 69%.
